From BindingDB's records for doi:10.1021/acsmedchemlett.1c00082 (Bristol Myers Squibb, 2021)
pIC50: −log10 of the molar value.

Assay: Antagonist activity at CCR2 in human peripheral blood mononuclear cells assessed as reduction in MCP1-induced chemotaxis measured after 30 mins by calcein-AM dye based fluorescence assay

pIC50: 8.77
SMILES: CN[C@@H]1CC[C@H](N2CC[C@H](Nc3ncnc4ccc(C(F)(F)F)cc34)C2=O)[C@H](NC(C)=O)C1
